Experimental data reported in patent US9464106B2, “Oligonucleotides useful for detecting and analyzing nucleic acids of interest” (Exiqon A/S, priority 2002, dated 2016).
l = locked nucleic acid (LNA); d = 2'-deoxy (DNA)

What was measured:
[1] = test system: C. elegans genes relevant for general stress response and metabolism of toxic compounds; assay: Expression profiling on C. elegans LNA tox oligoarray, beta-naphthoflavone and primaquine; format: in vivo, Caenorhabditis elegans; conditions: cRNA target; 24 hours
Description: For all cultures the sample is divided into two, and one half of the sample is used as the control, the other as the treated sample. Worm samples are harvested and sucrose cleaned by standard methods. For heat shock treatment: the heat shock sample is added to S-media preheated to 33° C. in a 1 L flask suspended in a water bath at 33° C., the other sample is added to a 1 L flask with S-media at 25° C. Both samples are shaken at approximately 100 rpm. for an hour. For β-naphthoflavone and primaquine treatment: 0.5 mL of 5 mg/mL β-naphthoflavone in DMSO or 0.5 mL of 20 mg/mL primaquine in DMSO were added to each 500 mL volume of S-media culture after 28 hours of growth from L1. At the same time 0.5 mL of DMSO was added to the control. Incubation was for 24 hours. Samples are then harvested by centrifugation at 3000×g suspended in RNALater™ (Ambion) and immediately frozen in liquid nitrogen.
First and second strand cDNA syntheses were made using the MessageAmp™ aRNA Kit (Ambion) according to suppliers' instructions. Five microgram of C. elegans total RNA was used as template for cDNA syntheses. Syntheses of fluorescent cRNA were made according to the MessageAmp™ aRNA Kit (Ambion) protocol with minor modifications. Cy3™-UTP or Cy5™-UTP (6 μl of a 5 mM solution Amersham Biosciences, USA) replaced biotin-CTP. The final concentration of ATP, CTP, and GTP was 7.5 mM whereas the concentration of UTP was reduced to 4.9 mM.
The arrays were hybridized overnight using the following protocol. The Cy3™ and Cy5™-labelled cDNA or cRNA samples were combined in one tube followed by addition of 3 μL 20×SSC (3×SSC final), 0.5 μL 1 M HEPES, pH 7.0 (25 mM final), 25 μg yeast tRNA (1.25 μg/μL final), 0.6 μL 10% SDS (0.3% final), and DEPC-treated water to 20 μL final volume. The labelled cDNA target sample was filtered in a Millipore 0.22 micron spin column according to the manufacturer's instructions (Millipore, USA), and the probe was denatured by incubating the reaction at 100° C. for 2 min. The sample was cooled at 20-25° C. for 5 min. by spinning at max speed in a microcentrifuge. A LifterSlip (Erie Scientific Company, USA) was carefully placed on top of the microarray spotted on Immobilizer™ MicroArray Slide and the hybridization mixture was applied to the array from the side. An aliquot of 30 μL of 3×SSC was added to both ends of the hybridization chamber, and the Immobilizer™ MicroArray Slide was placed in the hybridization chamber. The chamber was sealed watertight and incubated at 65° C. for 16-18 hours submerged in a water bath. After hybridisation, the slide was removed carefully from the hybridization chamber and washed using the following protocol. The Lifterslip coverslip was washed off in 2×SSC, pH 7.0 containing 0.1% SDS at room temperature for 1 min., followed by washing of the microarrays subsequently in 1.0×SSC, pH 7.0 at room temperature for 1 min, and then in 0.2×SSC, pH 7.0 at room temperature for 1 min. Finally the slides were washed for 5 seconds in 0.05×SSC, pH 7.0. The slides were then dried by centrifugation in a swinging bucket rotor at approximately 200 G for 2 min. The slide is now ready for scanning.
Following washing and drying, the slides were scanned using a ScanArray 4000XL scanner (Perkin-Elmer Life Sciences, USA), and the array data were processed using the GenePix™ Pro 4.0 software package (Axon, USA). The data in each image was normalized so that the ratio of means of all of the features is equal to 1.

[2] = test system: DNA oligonucleotides (HNFas128A-2, Gluc53as-A); assay: Mismatch discrimination of chimeric LNA-DNA 12-mers containing LNA-A or LNA-D; format: binding
[3] = test system: complementary single stranded DNA (3′-ctgNatcc); assay: Melting temperatures of DNA and LNA 8-mers containing inosine, 2,6-diaminopurine or 2-aminopurine against complementary DNA; format: binding; conditions: for Tm of the duplex with 3′-ctgaatcc / Tm of the duplex with 3′-ctgcatcc / Tm of the duplex with 3′-ctggatcc / Tm of the duplex with 3′-ctgtatcc: duplex 2.5 μM, 0.1M NaCl, 10 mM Na-phosphate (pH 7.0), 1 mM EDTA
human satellite-2 repeat = assay: FISH on metaphase chromosomes with satellite-2 LNA/DNA mixmers; format: binding; conditions: for FISH signals on chromosomes: 6.4 pmoles Cy3 labeled probe, 30 minutes at 37° C., simultaneous denaturation at 75° C. for 5 minutes; for FISH signals without a denaturation step: overnight hybridization
Description: Chromosome preparations were made by standard methods from peripheral lymphocyte cultures of normal males. Slides were prepared 1-4 days prior to an experiment and treated with RNAse (10 μg/μl) at 37° C. for one hour before hybridization. The 23 bp human satellite-2 repeat sequence, [NT], was used to prepare the […] different content and sequence order of LNA modifications (Table 19). All […] labeled in the 5' end with either Cy3 or biotin. Biotin amidite was purchased from Applied Biosystems and Cy3 amidite was purchased from Amersham Bioscience. […] FISH was carried out as described by […], Guven […], Turner Z. (1998) Not para-, not peri-, but centric inversion of chromosome 12. […] (1); with the following modifications including: […] In addition the effect of denaturation was also tested. Two alternative hybridization mixtures were used: 50% formamide/2×SSC (pH 7.0)/10% dextran sulphate or 2×SSC (pH 7.0)/10% dextran sulphate. Hybridization times included 30 min, 1 hr, 2 hrs, 3 hrs and overnight. Hybridization temperatures included: 37° C., 55° C., 60° C. and 72° C. Post washing was either as for standard FISH (1), or with 50% formamide/2×SSC at 60° C., or without formamide. Hybridization signals with biotin labeled LNA substituted oligonucleotide probes were visualized indirectly using two layers of fluorescein-labeled avidin (Vector Labs) linked by a biotinylated anti-avidin molecule, which amplified the signal 8-64 times. The hybridization of Cy3 labeled molecules however, was visualized directly after a short washing procedure. […] The whole procedure was carried out in the dark. The signals were visualized using a Leica DMRB epifluorescence microscope equipped with a SenSys charge-coupled device camera (Photometrics, Tucson, Ariz.), and IPLAB Spectrum Quips FISH software (Applied Imaging international Ltd, Newcastle, UK) within two days after hybridization.

[4] = test system: 3′-ACGACCAC-5′ / 3′-ACGGCCAC-5′; assay: Tm of LNA:DNA and DNA:DNA 8-mer duplexes, perfect match and single mismatch; format: binding; conditions: for ΔTm: perfect match minus single mismatch; for Tm of LNA:DNA Duplexes, Perfect match: target 3′-ACGACCAC-5′; for Tm of LNA:DNA Duplexes, Single mismatch: target 3′-ACGGCCAC-5′
Source text: It is often difficult to design probes and primers with the same range of melting temperature due to the variance in A/T and G/C content of the probing sites. Highly A/T rich regions typically give lower Tm values. Furthermore, if single mismatches are to be resolved, G/T mismatches are known to contribute little to ΔTm. As discussed above, the use of LNA is a desirable way to solve problems related to multiplex use of primers and probes. LNA offers the possibility to adjust Tm and increase the ΔTm at the same time. LNA increases Tm with 4-8° C./substitution and increases ΔTm in many cases (Table 9).

Molecule: COc1cc(NC(C)CCCN)c2ncccc2c1 (stereo not drawn) [Primaquine, primaquine]
- Log2 transformed fold of change, ABC_F57C12.4 [1]: −1.11
- Log2 transformed fold of change, CYP_F14F7.2 [1]: −1.24
- Log2 transformed fold of change, DC_W05G11.3 [1]: 1.16
- Log2 transformed fold of change, ER_26S [1]: −1.09
- Log2 transformed fold of change, PPGB_F13D12.6 [1]: 1.08
- Log2 transformed fold of change, RPL_K11H12.2 [1]: 1.15

Molecule: cAmCtgGAmCtctt (CACTGGACTCTT; chemistry not given here)
- ΔTm between singly mismatched and perfect duplexes ([2]; Gluc53as-A): −10.9 °C
- Tm with aagaggccagtg (singly mismatched) ([2]; Gluc53as-A, duplexes 2 μM): 50.6 °C
- Tm with aagagtccagtg (perfect) ([2]; Gluc53as-A, duplexes 2 μM): 61.5 °C

Molecule: 5′-GACITAGG [Entry 13]
- Tm of the duplex with 3′-ctgaatcc [3]: 48.2 °C
- Tm of the duplex with 3′-ctgcatcc [3]: 59.9 °C
- Tm of the duplex with 3′-ctggatcc [3]: 43.0 °C
- Tm of the duplex with 3′-ctgtatcc [3]: 53.1 °C

Molecule: aTTCcattcgATTccattcGATc (ATTCCATTCGATTCCATTCGATC; sugars from the 5' end dlllddddddlllddddddllld, backbone and methylation of C not given here; 5' end labelled with Cy3 or biotin) [LNA Blocks]
- FISH signals on chromosomes (human satellite-2 repeat): smaller signals on chromosome 1

Molecule: aTtcCatTcgAtTccAttCgaTc (ATTCCATTCGATTCCATTCGATC; sugars from the 5' end dlddlddlddldlddlddlddld, backbone and methylation of C not given here; 5' end labelled with Cy3 or biotin) [LNA-3]
- FISH signals on chromosomes (human satellite-2 repeat): bright signals on chromosomes 1, 16 and 9

Molecule: 5′-GACTTAGG [Entry 9]
- Tm of the duplex with 3′-ctgaatcc [3]: 60.7 °C
- Tm of the duplex with 3′-ctgcatcc [3]: 23.5 °C
- Tm of the duplex with 3′-ctggatcc [3]: 36.4 °C
- Tm of the duplex with 3′-ctgtatcc [3]: 28.0 °C

Molecule: 5′-GACATAGG [Entry 8]
- Tm of the duplex with 3′-ctgaatcc [3]: 38.2 °C
- Tm of the duplex with 3′-ctgcatcc [3]: 40.6 °C
- Tm of the duplex with 3′-ctggatcc [3]: 43.4 °C
- Tm of the duplex with 3′-ctgtatcc [3]: 61.6 °C

Molecule: 5′-GACDTAGG [Entry 11]
- Tm of the duplex with 3′-ctgaatcc [3]: 42.2 °C
- Tm of the duplex with 3′-ctgcatcc [3]: 52.4 °C
- Tm of the duplex with 3′-ctggatcc [3]: 41.4 °C
- Tm of the duplex with 3′-ctgtatcc [3]: 67.8 °C

Molecule: 5′-TGCTGGTG-3′ [DNA 8-mer, reference compound]
- ΔTm [4]: 10 °C
- Tm of LNA:DNA Duplexes, Perfect match [4]: 35 °C
- Tm of LNA:DNA Duplexes, Single mismatch [4]: 25 °C

Molecule: tGtggGATGttg (TGTGGGATGTTG; chemistry not given here)
- ΔTm between singly mismatched and perfect duplexes ([2]; HNFas128A-2): −15.1 °C
- Tm with caacaacccaca (singly mismatched) ([2]; HNFas128A-2, duplexes 2 μM): 45.9 °C
- Tm with caacatcccaca (perfect) ([2]; HNFas128A-2, duplexes 2 μM): 61.0 °C

Molecule: 5′-TGCTGGTG-3′ [LNA 8-mer]
- ΔTm [4]: 26 °C
- Tm of LNA:DNA Duplexes, Perfect match [4]: 71 °C
- Tm of LNA:DNA Duplexes, Single mismatch [4]: 45 °C

Molecule: 5′-gacgtagg [Entry 3, reference compound]
- Tm of the duplex with 3′-ctgaatcc [3]: <10 °C
- Tm of the duplex with 3′-ctgcatcc [3]: 25.0 °C
- Tm of the duplex with 3′-ctggatcc [3]: <10 °C
- Tm of the duplex with 3′-ctgtatcc [3]: <10 °C

Molecule: 5′-gacttagg [Entry 2, reference compound]
- Tm of the duplex with 3′-ctgaatcc [3]: 22.6 °C
- Tm of the duplex with 3′-ctgcatcc [3]: <10 °C
- Tm of the duplex with 3′-ctggatcc [3]: <10 °C
- Tm of the duplex with 3′-ctgtatcc [3]: <10 °C

Molecule: 5′-gacdtagg [Entry 4, reference compound]
- Tm of the duplex with 3′-ctgaatcc [3]: <10 °C
- Tm of the duplex with 3′-ctgcatcc [3]: <10 °C
- Tm of the duplex with 3′-ctggatcc [3]: <10 °C
- Tm of the duplex with 3′-ctgtatcc [3]: 23.3 °C
- destabilization of the duplex on analogous replacement in a DNA octamer ([3]; entries 1 and 4): 0.5 °C

Molecule: attccattcgattccattcgatc (ATTCCATTCGATTCCATTCGATC; chemistry not given here) [DNA oligo, reference compound]
- FISH signals on chromosomes (human satellite-2 repeat): no signals on any of the chromosomes
- FISH signals without a denaturation step (human satellite-2 repeat): no signals were obtained

Molecule: ATtCcAtTcGaTtCcAtTcGaTc (as printed in the source, key not given here) [LNA-2]
- FISH signals on chromosomes (human satellite-2 repeat): signals on chromosomes 1, 16, 9 and 15
- FISH signals without a denaturation step (human satellite-2 repeat): giving the best signals

Molecule: 5′-GDCDTDGG [Entry 12]
- Tm of the duplex with 3′-ctgaatcc [3]: 55.9 °C
- Tm of the duplex with 3′-ctgcatcc [3]: 63.8 °C
- Tm of the duplex with 3′-ctggatcc [3]: 54.7 °C
- Tm of the duplex with 3′-ctgtatcc [3]: 78.3 °C

Molecule: 5′-gacatagg [Entry 1, reference compound]
- Tm of the duplex with 3′-ctgaatcc [3]: <10 °C
- Tm of the duplex with 3′-ctgcatcc [3]: <10 °C
- Tm of the duplex with 3′-ctggatcc [3]: <10 °C
- Tm of the duplex with 3′-ctgtatcc [3]: 23.8 °C

Molecule: aTtccatTcgaTtccAttcgaTc (ATTCCATTCGATTCCATTCGATC; sugars from the 5' end dldddddldddldddldddddld, backbone and methylation of C not given here; 5' end labelled with Cy3 or biotin) [Dispersed LNA]
- FISH signals on chromosomes (human satellite-2 repeat): signals on chromosomes 1 and 16 only

Molecule: O=c1cc(-c2ccccc2)oc2ccc3ccccc3c12 [beta-naphthoflavone, β-naphthoflavone]
- Log2 transformed fold of change, ABC_C34G6.4 [1]: 1.01
- Log2 transformed fold of change, CYP_C03G6.15 [1]: 2.35
- Log2 transformed fold of change, CYP_C06B3.3 [1]: 2.47
- Log2 transformed fold of change, CYP_C49G7.8 [1]: 2.40
- Log2 transformed fold of change, CYP_F14F7.2 [1]: −1.03
- Log2 transformed fold of change, CYP_K07C6.5 [1]: 2.68
- Log2 transformed fold of change, CYP_K09D9.2 [1]: 2.14
- Log2 transformed fold of change, ER_26S [1]: −1.01
- Log2 transformed fold of change, HSP_C47E8.5 [1]: 1.17
- Log2 transformed fold of change, HSP_F26D10.3 [1]: 1.05
- Log2 transformed fold of change, HSP_F43D9.4 [1]: 1.27
- Log2 transformed fold of change, NAP_D2096.8 [1]: 1.14
- Log2 transformed fold of change, PPGB_F13D12.6 [1]: 1.21
- Log2 transformed fold of change, RAD_Y116A8C.133 [1]: 1.13
- Log2 transformed fold of change, RPL_K11H12.2 [1]: 1.42
- Log2 transformed fold of change, Ubi_F25B5.4 [1]: 1.37
